The values below come from US9890185B2, “Urea derivatives useful as kinase inhibitors” (Respivert Limited, priority 2013, dated 2018).

For assay [1], the target named is p38 MAPKα isoform (MAPK14) (Homo sapiens (Human), UniProt Q16539). In words: p38 MAPKα enzyme inhibition (FRET, Z-LYTE, Method 2). In kind it is biochemical. In a few lines: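 Z-LYTE FRET: p38 MAPKα (80 ng/mL for Method 1, 200 ng/mL for Method 2, pre-dilution) preincubated 2 hr RT with compound (4–0.004 μg/mL solutions), activity read via MAPKAP-K2 phosphorylation after 1 hr RT and 1 hr protease development. Coumarin/fluorescein ratio gives phosphorylation; % inhibition versus uninhibited control, IC50 from concentration-response curve.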

Assay [2] deals with PBMCs. In words: Cell mitosis assay in PBMCs (assay g). The conditions noted are these: Homo sapiens, PBMC, test compound 5 μg/mL. In kind it is cell-based. How it is done: Peripheral blood mononucleocytes (PBMCs) from healthy subjects are separated from whole blood (Quintiles, London, UK) using a density gradient (Histopaque®-1077, Sigma-Aldrich, Poole, UK). The PBMCs (3 million cells per sample) are subsequently treated with 2% PHA (phytohaemagglutinin, Sigma-Aldrich, Poole, UK) for 48 hr, followed by a 20 hr exposure to varying concentrations of test compounds. At 2 hr before collection, PBMCs are treated with demecolcine (0.1 μg/mL; Invitrogen, Paisley, UK) to arrest cells in metaphase. To observe mitotic cells, PBMCs are permeabilised and fixed by adding Intraprep (50 μL; Beckman Coulter, France), and stained with anti-phospho-histone 3 (0.26 ng/L; #9701; Cell Signalling, Danvers, Mass.) and propidium iodide (1 mg/mL; Sigma-Aldrich, Poole, UK) as previously described (Muehlbauer P. A. and Schuler M. J., Mutation Research, 2003, 537:117-130). Fluorescence is observed using an ATTUNE flow cytometer (Invitrogen, Paisley, UK), gating for lymphocytes. The percentage inhibition of mitosis is calculated for each treatment relative to vehicle (0.5% DMSO) treatment.

For assay [3], the system named is PBMCs. In words: IL-2 release in CD3/CD28 stimulated PBMC cells (assay c). In kind it is cell-based. The conditions noted are these: Homo sapiens, read-out: IC50 Values for Inhibition of Cytokine Release, PBMCs IL-2. The procedure: (§1) PBMCs from healthy subjects are separated from whole blood using a density gradient (Lymphoprep, Axis-Shield Healthcare). Cells are added to a 96 well plate pre-coated with a mixture of CD3/CD28 monoclonal antibodies (0.3 μg/mL eBioscience and 3 μg/mL BD Pharmingen respectively). Compound at the desired concentration is then added to the wells and the plate left for 3 days under normal tissue culture conditions. Supernatants are harvested and IL-2 and IFN gamma release determined by Sandwich ELISA (Duo-set, R&D System). The IC50 is determined from the dose response curve.

Another assay deals with d-U937 cells. In words: Accumulation of β catenin in d-U937 cells (assay m). In kind it is cell-based, human. Particulars: percentage relative to Reference Compound at 1 μg/mL. The procedure, abridged: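 Read-out: colourimetric cell-based immunoassay for endogenous β-catenin (OD450 minus 655 reference), normalised to crystal violet absorbance at 595 nm. Test compound or vehicle was applied for 18 hr to U937 monocytes first differentiated with PMA (100 ng/mL) for 48–72 hr.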

The test system of assay [4] is PBMCs. In words: LPS-induced IL-8 release in PBMC cells (assay b). In kind it is cell-based, human. Particulars: Homo sapiens, PBMC; LPS-stimulated PBMCs; read-out: IC50 Values for Inhibition of Cytokine Release, PBMCs IL-8. In a few lines: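 Cytokines (TNFα, IL-8) in supernatants were quantified by sandwich ELISA after a 24 h challenge with 1 ng/mL E. coli LPS at 37° C, 5% CO2. Healthy-donor PBMCs had been exposed to compound for 2 h beforehand. IC50 values were fitted from the concentration-response curves.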

For the next assay, the target named is GSK 3α (Homo sapiens (Human), UniProt P49840). Nature of the assay: GSK 3α enzyme inhibition (FRET, Z-LYTE, Method 2). Particulars: read-out: IC50 Values for Enzyme Inhibition, GSK3α. Type of assay: biochemical. In a few lines:
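Human GSK3α (500 ng/mL) preincubated with compound (4, 0.4, 0.04 or 0.004 μg/mL) at RT for 2 h (Method 1) or 105 min (Method 2). Then FRET peptide (8 μM) and ATP (40 μM) added for 1 h, followed by protease development for 1 h. IC50 from the coumarin/fluorescein emission ratio relative to uninhibited control.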

The subject of assay [5] is PBMCs. In words: IFN gamma release in CD3/CD28 stimulated PBMC cells (assay c). Type of assay: cell-based. Particulars: Homo sapiens, read-out: IC50 Values for Inhibition of Cytokine Release, PBMCs IFNγ. How it is done:
as §1

In another assay the target is c-Src (Homo sapiens (Human), UniProt P12931). Nature of the assay: c-Src enzyme inhibition (FRET, Z-LYTE). Type of assay: biochemical. In a few lines: (§2)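 First, compound and enzyme incubate 2 hr at room temperature. Next, FRET peptide (8 μM added solution) and ATP go in for 1 hr, using an 800 μM solution for c-Src and 60 μM for Syk. Finally protease develops for 1 hr; IC50 is fitted to inhibition versus concentration.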

The target of the next assay is Syk (Homo sapiens (Human), UniProt P43405). In words: Syk enzyme inhibition (FRET, Z-LYTE). In kind it is biochemical. In a few lines:
as §2

Sequence of p38 MAPKα isoform (MAPK14) (Q16539 whole entry, canonical isoform): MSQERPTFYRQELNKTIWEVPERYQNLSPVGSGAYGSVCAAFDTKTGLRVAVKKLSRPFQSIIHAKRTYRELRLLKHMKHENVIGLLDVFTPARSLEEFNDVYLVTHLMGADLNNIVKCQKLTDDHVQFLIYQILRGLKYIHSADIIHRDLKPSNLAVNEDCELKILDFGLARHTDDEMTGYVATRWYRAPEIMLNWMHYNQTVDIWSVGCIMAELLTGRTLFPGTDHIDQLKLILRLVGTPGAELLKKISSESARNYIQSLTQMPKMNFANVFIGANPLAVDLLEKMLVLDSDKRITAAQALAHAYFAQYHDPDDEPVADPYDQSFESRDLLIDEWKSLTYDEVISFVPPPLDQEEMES
Sequence of c-Src (P12931 whole entry, looked up): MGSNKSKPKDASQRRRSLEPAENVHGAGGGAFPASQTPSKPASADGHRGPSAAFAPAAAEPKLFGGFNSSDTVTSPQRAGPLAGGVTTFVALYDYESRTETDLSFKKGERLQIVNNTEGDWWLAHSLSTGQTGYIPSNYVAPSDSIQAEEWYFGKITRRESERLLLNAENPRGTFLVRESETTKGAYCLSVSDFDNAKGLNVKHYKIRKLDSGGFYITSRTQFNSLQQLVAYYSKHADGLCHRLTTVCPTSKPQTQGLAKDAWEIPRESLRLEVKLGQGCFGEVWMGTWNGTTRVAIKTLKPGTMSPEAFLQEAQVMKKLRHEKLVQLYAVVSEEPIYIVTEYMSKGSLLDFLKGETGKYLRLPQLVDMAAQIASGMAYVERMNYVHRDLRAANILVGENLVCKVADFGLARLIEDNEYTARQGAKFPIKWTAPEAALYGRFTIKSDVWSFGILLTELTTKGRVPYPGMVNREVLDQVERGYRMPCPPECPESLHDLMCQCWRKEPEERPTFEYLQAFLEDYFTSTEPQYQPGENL
Sequence of GSK 3α (P49840 whole entry): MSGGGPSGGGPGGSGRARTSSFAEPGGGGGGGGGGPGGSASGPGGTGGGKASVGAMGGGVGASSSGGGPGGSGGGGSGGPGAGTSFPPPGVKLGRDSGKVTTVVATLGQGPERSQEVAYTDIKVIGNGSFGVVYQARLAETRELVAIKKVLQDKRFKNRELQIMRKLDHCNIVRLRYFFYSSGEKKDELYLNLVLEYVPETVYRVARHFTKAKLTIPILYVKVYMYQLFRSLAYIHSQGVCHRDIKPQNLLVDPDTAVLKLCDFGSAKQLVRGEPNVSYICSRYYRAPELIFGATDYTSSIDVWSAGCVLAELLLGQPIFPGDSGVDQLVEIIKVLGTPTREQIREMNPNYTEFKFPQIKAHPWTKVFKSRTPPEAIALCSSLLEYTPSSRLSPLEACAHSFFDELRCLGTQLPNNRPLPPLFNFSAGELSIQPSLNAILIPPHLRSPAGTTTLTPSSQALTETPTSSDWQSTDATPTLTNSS

A word on the IC50: it is the concentration that inhibits the measured activity by half. As a reminder, the inhibition is the drop in the measured response relative to a control, in per cent. A low value points to a response near the control. `COc1c(NC(=O)Nc2ccc(Oc3ccnc(NCc4ccccc4)n3)c3ccccc23)cc(C(C)(C)C)cc1P(C)(C)=O` [38(g), 1-(4-((2-(Benzylamino)pyrimidin-4-yl)oxy)naphthalen-1-yl)-3-(5-(tert-butyl)-3-(dimethylphosphoryl)-2-methoxyphenyl)urea]: the IC50 came to 0.009 µM in assay [1]; 1.6 µM with PBMCs [3]; 0.0033 µM in the assay with PBMCs [4]; 2.37 µM on GSK 3α; 0.0225 µM in the assay with PBMCs [5]. The compound also yielded an inhibition at 5 µg/mL in the assay on PBMCs [2] of 28.8%. Moreover, the “% β-catenin induction” value is listed as 4.5% with d-U937 cells (test compound 1 μg/mL), 24.5% in the assay on d-U937 cells (test compound 5 μg/mL) and 38.0% in the assay with d-U937 cells (test compound 10 μg/mL).

In the case of `COc1c(CNC(C)=O)cc(C(C)(C)C)cc1NC(=O)Nc1ccc(Oc2ccnc(Nc3cc(OCCN4CCOCC4)cc(C(F)(F)F)c3)c2)c2ccccc12` [Example 52], the half-maximal inhibitory concentration (IC50) in assay [1] is more than 1.25 µM; in the assay with PBMCs [3], 0.0435 µM; against c-Src it was 0.235 µM; in the assay with PBMCs [4] it was 0.0028 µM; at Syk, more than 1.25 µM; on GSK 3α, more than 12.5 µM. In addition, the IC50 in the assay with PBMCs [5] amounted to 0.0055 µM. For the same compound, testing at 5 µg/mL with PBMCs [2] gave an inhibition of 46.8%.

For the compound `COc1cc(Nc2cc(Oc3ccc(NC(=O)Nc4cc(C(C)(C)C)cc(CC(N)=O)c4OC)c4ccccc34)ccn2)cc(S(=O)(=O)C2CC2)c1` [38(ad), 2-(5-(tert-Butyl)-3-(3-(4-((2-((3-(cyclopropylsulfonyl)-5-methoxyphenyl)amino)pyridin-4-yl)oxy)naphthalen-1-yl)ureido)-2-methoxyphenyl)acetamide], the IC50 was 0.087 µM in assay [1]; 0.214 µM in the assay on PBMCs [3]; 0.155 µM against c-Src; 0.0022 µM in the assay with PBMCs [4]; more than 1.38 µM against Syk; 11 µM at GSK 3α. Further, the IC50 with PBMCs [5] stood at 0.0109 µM. Further, at 5 µg/mL the inhibition in the assay with PBMCs [2] was 14.5%.

Consider `COCCOCCOCCNC(=O)c1cc(Nc2cc(Oc3ccc(NC(=O)Nc4cc(C(C)(C)C)cc(S(C)(=O)=O)c4OC)c4ccccc34)ccn2)cc(OC)c1` [38(ab), 3-((4-((4-(3-(5-(tert-Butyl)-2-methoxy-3-(methylsulfonyl)phenyl)ureido)naphthalen-1-yl)oxy)pyridin-2-yl)amino)-5-methoxy-N-(2-(2-(2-methoxyethoxy)ethoxy)ethyl)benzamide], for which the IC50 is 0.05 µM in assay [1]; 0.317 µM with PBMCs [3]; 0.061 µM against c-Src; 0.0014 µM with PBMCs [4]; more than 1.21 µM at Syk; 4.83 µM on GSK 3α. The IC50 in the assay with PBMCs [5] is 0.0109 µM. The compound also returned an inhibition at 5 µg/mL in the assay with PBMCs [2] of 30.7%.

For the compound `COc1cc(Nc2cc(Oc3ccc(NC(=O)Nc4cc(C(C)(C)C)cc(C(=O)NCCN5CC[S+]([O-])CC5)c4OC)c4ccccc34)ccn2)cc(OC)c1` [Example 64, 5-(tert-Butyl)-3-(3-(4-((2-((3,5-dimethoxyphenyl)amino)pyridin-4-yl)oxy)naphthalen-1-yl)ureido)-2-methoxy-N-(2-(1-oxidothiomorpholino)ethyl)benzamide], the IC50 in [1] was 0.945 µM; in the assay on PBMCs [3], 0.0627 µM; against c-Src, 0.09 µM; in the assay with PBMCs [4], 0.0026 µM; on Syk it was 0.156 µM; on GSK 3α, 9.39 µM. In addition, the IC50 in the assay with PBMCs [5] stood at 0.0133 µM. In the assay on PBMCs [2], this compound had an inhibition at 5 µg/mL of 32.4%.

`COc1c(NC(=O)Nc2ccc(Oc3ccnc(Nc4cnccn4)c3)c3ccccc23)cc(C(C)(C)C)cc1P(C)(C)=O` [15(aa), 1-(5-(tert-butyl)-3-(dimethylphosphoryl)-2-methoxyphenyl)-3-(4-((2-(pyrazin-2-ylamino)pyridin-4-yl)oxy)naphthalen-1-yl)urea] displayed an inhibition at 5 µg/mL in the assay on PBMCs [2] of 98.1%. Also, the IC50 is 0.0586 µM in the assay with PBMCs [3]; 0.046 µM at c-Src; 0.0008 µM with PBMCs [4]; 0.114 µM at Syk; 0.192 µM on GSK 3α; 0.0147 µM with PBMCs [5]. Besides, the “% β-catenin induction” value stood at 50.5% in the assay with d-U937 cells (test compound 1 μg/mL), 58.5% in the assay with d-U937 cells (test compound 5 μg/mL) and 49.5% in the assay on d-U937 cells (test compound 10 μg/mL).

For the compound `COc1cc(Nc2cc(Oc3ccc(NC(=O)Nc4cc(C(C)(C)C)cc(C(=O)NCCN5CCOCC5)c4OC)c4ccccc34)ccn2)cc(C(N)=O)c1` [Example 61, 5-(tert-Butyl)-3-(3-(4-((2-((3-carbamoyl-5-methoxyphenyl)amino)pyridin-4-yl)oxy)naphthalen-1-yl)ureido)-2-methoxy-N-(2-morpholinoethyl)benzamide], the IC50 in [1] was determined as 0.211 µM; in the assay on PBMCs [3] it was 0.0078 µM; in the assay with PBMCs [4] it was 0.0019 µM; on GSK 3α, 1.61 µM; in the assay with PBMCs [5], 0.0016 µM. In the assay on PBMCs [2], this compound had an inhibition at 5 µg/mL of 68.7%.

As for `COc1c(NC(=O)Nc2ccc(Oc3ccnc(Nc4cc(C#N)cc(OCCCN5CCOCC5)c4)c3)c3ccccc23)cc(C(C)(C)C)cc1[S+](C)[O-]` (centres unmarked) [79(e), 1-(5-tert-Butyl-2-methoxy-3-methylsulfinyl-phenyl)-3-[4-[[2-[3-cyano-5-(3-morpholinopropoxy)anilino]-4-pyridyl]oxy]-1-naphthyl]urea], the IC50 was 0.269 µM in assay [1]; 0.0519 µM in the assay with PBMCs [3]; 0.081 µM on c-Src; 0.0041 µM in the assay on PBMCs [4]; more than 1.19 µM against Syk; 0.0069 µM with PBMCs [5]. In the assay on PBMCs [2], this compound registered an inhibition at 5 µg/mL of 72.4%.

As to `COc1c(CNC(C)=O)cc(C(C)(C)C)cc1NC(=O)Nc1ccc(Oc2ccnc(Nc3cc(C#N)cc(OCCN4CCOCC4)c3)c2)c2ccccc12` [Example 50, N-(5-(tert-Butyl)-3-(3-(4-((2-((3-cyano-5-(2-morpholinoethoxy)phenyl)amino)pyridin-4-yl)oxy)naphthalen-1-yl)ureido)-2-methoxybenzyl)acetamide], 5 µg/mL produced 57.7% inhibition with PBMCs [2]. In addition, the IC50 with PBMCs [3] was found to be 0.0301 µM; on c-Src it was 0.04 µM; with PBMCs [4], 0.0012 µM; against Syk, 0.799 µM; on GSK 3α, 3.27 µM; in the assay on PBMCs [5], 0.0009 µM.

As for `COc1cc(Nc2cc(Oc3ccc(NC(=O)Nc4cc(C(C)(C)C)cc(CC(N)=O)c4OC)c4ccccc34)ccn2)ccc1C(=O)NCCN1CCOCC1` [Example 70, 4-((4-((4-(3-(3-(2-Amino-2-oxoethyl)-5-(tert-butyl)-2-methoxyphenyl)ureido)naphthalen-1-yl)oxy)pyridin-2-yl)amino)-2-methoxy-N-(2-morpholinoethyl)benzamide], the half-maximal inhibitory concentration (IC50) in assay [1] is 0.028 µM; in the assay on PBMCs [3] it was 0.0981 µM; in the assay on PBMCs [4], 0.0023 µM; at GSK 3α it was 2.28 µM; in the assay with PBMCs [5], 0.0111 µM. 5 µg/mL produced 62.8% inhibition in the assay on PBMCs [2].
